Laboratory results taken from patent publication US20070196337A1, “RECOMBINANT PERFORIN, EXPRESSION AND USES THEREOF” (priority 2004, published 2007).

Assays:
Type in all cases: cell-based
Jurkat cells = assay: Lysis of Jurkat cells by RBL granule extracts, 4 hour 51Cr release; settings: EGTA 2 mM
Experimental: WT-Pfp, P5-Pfp or P6-Pfp was isolated from the RBL granules by nitrogen caviatation and percoll density fractionation of the cellular contents as described by Davis et al (J Immunol Methods. 2003, 276(1-2):59-68). RBL cells (1×10^9) were washed three times in PBS, then resuspended at 1×10^8/ml in relaxation buffer (100 mM KCL, 3.5 mM MgCl2, 1 mM PIPES pH 6.8, 1.25 mM EGTA) and lysed in a nitrogen cavitation apparatus at 450 psi for 20 minutes at 4° C. on a rotating platform. The cell lysate was collected following sudden decompression, and the nuclei removed by centrifugation at 2000 rpm for 10 minutes at 4° C. The nuclei were washed twice with 1 ml relaxation buffer and the supernatants were pooled with the supernatant from the first wash. The pooled supernatants were centrifuged at 2000 rpm for a further 5 minutes to remove all cell debris. A 40% percoll density gradient was then formed by mixing 8 ml of adjusted percoll (45 ml percoll and 5 ml 10× relaxation buffer) with 12 ml of relaxation buffer, containing lmM ATP. 5 ml of cell lysate was loaded onto each gradient and centrifuged at 20,000 rpm for 35 minutes at 4° C. The cytotoxic granules, which migrate to the dense region of the gradient, were collected by harvesting 1 ml fractions from the bottom of the gradient using a long spinal tap needle attached to a syringe. The fractions were concentrated (individually) in an ultracentrifuge (Beckman Coulter) at 100,000 rpm for 3 hours at 4° C. and the granules obtained from the surface of the pelleted percoll by washing them into a small volume of resuspension buffer. To release the perforin, the granules were disrupted by resuspension in an equal volume of 2 M NaCl and three cycles of freezing in liquid nitrogen and thawing in a 37° C. waterbath.
Jurkat cells were labelled with 50 μCi ^51Chromium in 100 ul unsupplemented RPMI medium at 37° C. for 1 hour. ^51Cr-labelled cells were then resuspended in HBSS buffer (CSL Ltd.) with or without 2 mM EGTA. […] Granule fraction #8 (determined by western analysis to contain the highest perforin content) was serially diluted in HE buffer and incubated with target cells in a final volume of 200 μl, for 4 hours at 37° C. The spontaneous release of ^51Cr was determined by incubating the target cells with HE buffer alone and the maximum release was determined by adding HCl to a final concentration of 1 M. After 4 hours, the plates were centrifuged at 1500 rpm, 100 μl of supernatant was harvested and the released radioactivity was measured in a Wizard 1470 Gamma counter. Cytotoxicity was expressed as a percentage specific ^51Cr release after subtracting spontaneous release. The percent specific lysis was calculated as follows: 100× [(experimental release—spontaneous release)/(maximum release—spontaneous release)].

[1] = tested on: Sheep red blood cells (sRBC); assay: Erythrocyte lysis assay with RBL granule extracts, haemoglobin release
Experimental: Sheep red blood cells (sRBC) were washed three times then resuspended at 10^8/mL in 150 mM NaCl. For the assay, 50 ul of freeze/thawed granule extract [fraction #8 (see above)] was incubated with 20 μl of the sRBC suspension in the presence of 2 mM CaCl2 at 37° C. for 30 minutes in v-bottom 96 well plates. For maximal haemoglobin release, H2O was used to lyse the red blood cells. Plates were centrifuged at 1500 rpm for 5 minutes and the haemoglobin released into the supernatant was estimated by measuring the optical density at 405 nm. Cell lysis was expressed as a percentage of maximal haemoglobin release.

Jurkat T cell targets = assay: 4-h 51Cr release assay, perforin-transfected RBL cells on Jurkat T cell targets; settings: Jurkat targets, 4 h 51Cr release
Source text: Mature human and mouse perforin each have 534 amino acids. However, the leader sequence of human perforin is one amino acid longer than that of the mouse. […] Importantly, arginine 225 is a nonconserved residue with threonine being present in mouse perforin. […] The mutations were introduced using the Transformer (Stratagene) site-directed mutagenesis system according to the manufacturer's instructions. The resultant and the WT cDNA was cloned into the pIRES2-EGFP expression vector (CLONTECH Laboratories, Inc.). Fcε receptor-expressing RBL cells were grown to near confluence in 175-cm^2 flasks, harvested, washed twice, and resuspended at 10^7 cells/ml in serum-free DMEM. 200 μL of the cell suspension was mixed with 20 μg pIRES2-EGFP containing the WT or mutated perforin cDNA or vector DNA alone, incubated at room temperature for 10 min, and electroporated in 4-mm electroporation cuveftes and Bio-Rad Laboratories pulser at 500 μF and […]. After 10 min at RT, the cells were transferred into complete DMEM. Cells were harvested 18-20 h later, and GFP-expressing cells were sorted by flow cytometry (FACStar; Beckton Dickinson).
The cytotoxic capacity of RBL cells was analyzed using Jurkat T cell targets in a 4-h ^51Cr release assay, as detailed above. Briefly, the surface of ^51Cr-labeled Jurkat cells was derivatized with a 1 mM solution of trinitrobenzosulfonic acid in PBS, (pH 7.4) for 15 min at 37° C. and washed with unsupplemented DMEM three times. The transfected RBL cells were harvested and incubated with antitrinitrophenol IgE mAb (2 μg/ml) at 37° C. for 15 min and washed with unsupplemented DMEM three times. RBL and Jurkat cells were coincubated at various effector to target (E:T) ratios at 37° C. in 200 μL serum-free DMEM supplemented with 1% BSA for 4 h in 96-well plates. The supernatant was then harvested and the released ^51Cr measured in a gamma counter. The total ^51Cr content of Jurkat cells was estimated using 5% Triton X-100-lysed cells. The percentage-specific chromium release was calculated as 100× ([experimental release[…]]/[total release—spontaneous release])) and is shown as mean±SD.
The cytotoxicity of RBL cells was analysed using Jurkat T cells as targets in a 4-hour ^51Cr release assay as described in Example 3 above. Cell lysates from transiently-transfected RBL cells were resolved on a 10% SDS-PAGE (Tris-Glycine) gel, which was then analysed for perforin or tubulin expression by immunoblotting with P1-8 anti-perforin, or anti-tubulin antibodies, followed by the secondary HRP-linked anti-rat or anti-mouse immunoglobulin. The signal was detected by chemiluminescence (Amersham-Pharmacia).

| Molecule | inhibition of WT-Pfp granule lysis of Jurkat cells (Jurkat cells) | inhibition of WT-Pfp granule hemolysis of sRBC [1] | cytotoxic function of RBL cells expressing perforin variant vs WT (Jurkat T cell targets) |
| --- | --- | --- | --- |
| O=C(O)CN(CCOCCOCCN(CC(=O)O)CC(=O)O)CC(=O)O [EGTA, Ethyleneglycotetraacetic acid, reference compound] | completely inhibited | inhibited by EGTA | – |
| V183G: mouse perforin with V183G substitution (protein, UniProt P10820 21-554, looked up, variant V183G) Perforin-1: PCYTATRSECKQKHKFVPGVWMAGEGMDVTTLRRSGSFPVNTQRFLRPDRTCTLCKNSLMRDATQRLPVAITHWRPHSSHCQRNVAAAKVHSTEGVAREAAANINNDWRVGLDVNPRPEANMRASVAGSHSKVANFAAEKTYQDQYNFNSDTVECRMYSFRLGQKPPLHLDFKKALRALPRNFNSSTEHAYHRLISSYGTHFITAVDLGGRISVLTALRTCQLTLNGLTADEVGDCLNVEAQVSIGAQASVSSEYKACEEKKKQHKMATSFHQTYRERHVEVLGGPLDSTHDLLFGNQATPEQFSTWTASLPSNPGLVDYSLEPLHTLLEEQNPKREALRQAISHYIMSRARWQNCSRPCRSGQHKSSHDSCQCECQDSKVTNQDCCPRQRGLAHLVVSNFRAEHLWGDYTTATDAYLKVFFGGQEFRTGVVWNNNNPRWTDKMDFENVLLSTGGPLRVQVWDADYGWDDDLLGSCDRSPHSGFHEVTCELNHGRVKFSYHAKCLPHLTGGTCLEYAPQGLLGDPPGNRSGAVW | – | – | indistinguishable from that of the WT protein |
